Measured values published in the NIST ThermoML archive (doi:10.1016/j.jct.2016.03.010).

Assay: mn = molality of the nth substance listed, in mol/kg
Settings: 101 kPa, Liquid; for viscosity: Capillary tube (Ostwald / Ubbelohde) method; for mass density: Vibrating tube method

O=C(O)c1cccnc1 [3-carboxylpyridine] + O
Settings	mass density, 298.15 K [kg/m3]	mass density, 308.15 K [kg/m3]	mass density, 318.15 K [kg/m3]	viscosity, 298.15 K [mPa·s]	viscosity, 308.15 K [mPa·s]	viscosity, 318.15 K [mPa·s]
m1 = 0.0202	997.92	994.89	991.06	0.8951	0.7224	0.5972
m1 = 0.0365	998.6	995.55	991.69	0.8988	0.725	0.5992
m1 = 0.0529	999.27	996.21	992.33	0.9015	0.7275	0.601
m1 = 0.0695	999.95	996.87	992.96	0.905	0.7308	0.6051
m1 = 0.0863	1000.62	997.52	993.59	0.9088	0.734	0.6074
m1 = 0.1032	1001.3	998.17	994.23	0.9119	0.7368	0.6094
